According to ChEMBL document CHEMBL1201862, “PubChem BioAssay data set” (2004):
Counter-ions that a name gives are not always drawn. Active and inactive are the calls of the source.

Key:
Protein Tat = molecular target: T1, Protein Tat (Human immunodeficiency virus type 1 group M subtype B (isolate HXB2)(HIV-1), UniProt P04608); format: functional;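 note: tat binding to TAR RNA read out by fluorescence polarization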
T1 sequence (P04608 whole entry): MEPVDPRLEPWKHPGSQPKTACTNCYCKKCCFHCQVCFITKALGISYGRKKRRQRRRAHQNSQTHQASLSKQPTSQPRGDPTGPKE

[1] = Luminescence-based cell-based high throughput dose response assay to identify activators of the DAF-12 from the parasite S. stercoralis (ssDAF-12).; format: functional
[2] = molecular target: T2, Oxysterols receptor LXR-beta (Homo sapiens, UniProt P55055); assay: LXR agonists, Gal4 luciferase reporter, dose response, counter-screen for ssDAF-12 agonist project, cell-based, luminescence, HEK293, S. stercoralis campaign (AID 720737); format: functional; details: read-out: IC50 (the source's name)
T2 sequence (P55055 whole entry): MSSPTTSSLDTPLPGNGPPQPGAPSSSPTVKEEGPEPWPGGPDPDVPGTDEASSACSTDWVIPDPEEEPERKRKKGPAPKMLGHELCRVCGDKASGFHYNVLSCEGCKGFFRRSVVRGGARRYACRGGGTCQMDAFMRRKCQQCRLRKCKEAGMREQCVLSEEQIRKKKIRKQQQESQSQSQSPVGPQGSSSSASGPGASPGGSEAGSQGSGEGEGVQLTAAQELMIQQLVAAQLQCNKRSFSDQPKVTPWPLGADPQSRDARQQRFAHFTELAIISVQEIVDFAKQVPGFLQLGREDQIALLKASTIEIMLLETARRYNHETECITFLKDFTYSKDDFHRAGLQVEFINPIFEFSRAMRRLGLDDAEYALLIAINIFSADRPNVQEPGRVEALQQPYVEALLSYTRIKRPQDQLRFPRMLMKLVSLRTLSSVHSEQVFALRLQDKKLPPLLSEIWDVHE

[3] = half-maximal inhibitory concentration for glucagon-like peptide-1 release, STC-1 cell line, dose-response (AID 1117345); format: functional, cell-based
[4] = Glucagon-like peptide 1 release potency, NCI-H716 cell line, dose-response, half-maximal inhibitory concentration (AID 1117344); format: functional, cell-based
[5] = inhibitors of firefly luciferase expression or activity, dose response, H4 neuroglioma cells, luminescence (AID 1990); format: functional, cell-based
[6] = Luminescence Cell-Based Dose Response HTS to Identify Inhibitors of 5'UTR Stem-Loop Driven Prion Protein mRNA Translation in H4 Neuroglioblastoma Cells. [Related pubchem assays: 1827 (Project Summary), 1813 (Primary HTS)]; format: functional
[7] = inhibitors of SNCA 5'UTR-driven reporter translation, confirmation, H4 neuroglioma cells, luminescence (AID 1988); format: functional, cell-based
[8] = microbe, parasite or virus in culture; format: functional; details: Mycobacterium tuberculosis
[9] = growth suppression of PTEN-null colon cells, dose response, cell-based, HCT116 PTEN knockout (AID 1047); format: functional;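 note: HCT116 colon tumor cells with PTEN knocked out; cells exposed to compound for 60 hours before readout; potency for loss of cell viability measured by luminescence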
[10] = growth suppression of beta-catenin-knockout colon cells, dose response, cell-based, HCT116, human colon tumor (AID 1045); format: functional;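 note: HCT116 colon tumor cells with beta catenin knocked out; cells exposed to compound for 60 hours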
[11] = molecular target: T3, Ubiquitin-conjugating enzyme E2 N (Homo sapiens, UniProt P61088); format: functional;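 note: Dose-response confirmation in a TR-FRET assay detecting UBC13-driven polyubiquitin chain formation, inhibition measured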
T3 sequence (P61088 whole entry): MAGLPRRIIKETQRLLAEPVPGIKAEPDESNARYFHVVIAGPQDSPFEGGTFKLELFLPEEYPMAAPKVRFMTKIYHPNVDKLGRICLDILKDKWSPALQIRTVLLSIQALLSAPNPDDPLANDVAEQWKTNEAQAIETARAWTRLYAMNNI

INS1 = assay: beta cell apoptosis inhibitors, cytokine rescue, dose response, luminescence, retest (AID 449756); format: functional, cell-based; details: Rattus norvegicus;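 note: cell death triggered by IL-1 beta plus TNF-alpha plus IFN-gamma mixture; protective hits raise ATP signal compared with cytokine alone wells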
[12] = Shn3 3'UTR reporter inhibitors, dose response, cell-based, Clone20 osteoblasts, firefly luciferase, cherry-picked (AID 624132); format: functional;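 note: firefly luciferase luminescence from reporter carrying the Shn3 3'UTR in osteoblasts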
[13] = HepG2 cell cytotoxicity, dose response, cytotoxicity control for Shn3 inhibitor project, CellTiter-Glo, cherry-picked (AID 624134); format: functional, cell-based
[14] = control 3'UTR Renilla luciferase suppression, dose response, counter-screen for Shn3 inhibitor project, cell-based, Clone20-Shn3RL, cherry-picked (AID 624133); format: functional
[15] = molecular target: Heat shock protein HSP 90-alpha (Homo sapiens, UniProt P07900); format: functional, organism-based
[16] = molecular target: T4, Aryl hydrocarbon receptor (Homo sapiens, UniProt P35869); details: Potency;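 note: confirmatory quantitative high-throughput screen measuring activation of the AhR signaling pathway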
T4 sequence (P35869 whole entry): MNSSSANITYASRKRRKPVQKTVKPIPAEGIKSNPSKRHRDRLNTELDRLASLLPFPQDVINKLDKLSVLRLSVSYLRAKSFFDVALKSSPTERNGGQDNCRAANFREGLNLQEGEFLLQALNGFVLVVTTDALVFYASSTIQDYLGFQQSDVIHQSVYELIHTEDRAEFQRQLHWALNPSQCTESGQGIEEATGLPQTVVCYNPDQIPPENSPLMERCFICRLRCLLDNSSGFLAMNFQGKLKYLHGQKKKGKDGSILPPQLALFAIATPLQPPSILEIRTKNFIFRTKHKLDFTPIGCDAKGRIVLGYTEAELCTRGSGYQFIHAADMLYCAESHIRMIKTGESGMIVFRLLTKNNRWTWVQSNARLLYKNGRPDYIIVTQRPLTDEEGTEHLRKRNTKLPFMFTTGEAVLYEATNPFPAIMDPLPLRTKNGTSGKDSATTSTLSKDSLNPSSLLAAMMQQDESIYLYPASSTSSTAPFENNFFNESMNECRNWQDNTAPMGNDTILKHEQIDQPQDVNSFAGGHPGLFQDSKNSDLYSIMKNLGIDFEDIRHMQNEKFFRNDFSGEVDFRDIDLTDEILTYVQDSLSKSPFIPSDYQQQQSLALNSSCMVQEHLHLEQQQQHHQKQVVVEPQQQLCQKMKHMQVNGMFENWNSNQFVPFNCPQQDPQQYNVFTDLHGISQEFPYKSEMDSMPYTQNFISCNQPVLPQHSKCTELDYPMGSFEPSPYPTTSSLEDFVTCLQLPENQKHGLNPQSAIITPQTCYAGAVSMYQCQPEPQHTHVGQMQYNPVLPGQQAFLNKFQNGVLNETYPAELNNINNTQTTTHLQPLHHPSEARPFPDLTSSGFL

Escherichia coli [17] = assay: microbe, parasite or virus in culture
Escherichia coli [18] = assay: microbe, parasite or virus in culture; remark: listed apart in the source

## CC1(C)Cc2nc3sc4c(SCC(=O)NCc5ccco5)ncnc4c3cc2CO1
Protein Tat
  IC50: > 100 µM (active)

## Cc1nn(Cc2ccccc2)c(Cl)c1/C=N/NC(=O)c1cccnc1
[1]
  IC50: > 67.5 µM (inactive)
[2]
  EC50: > 67.5 µM (inactive)

## C[C@@H](NCCCc1cccc(C(F)(F)F)c1)c1cccc2ccccc12 [CINACALCET HYDROCHLORIDE]
[3]
  IC50: > 40 µM (inactive)
[4]
  IC50: 17.2 µM (inactive)

## CC(C)(C)c1ccc(C(O)CCCN2CCC(C(O)(c3ccccc3)c3ccccc3)CC2)cc1 (centres undefined) [TERFENADINE]
[5]
  EC50: > 120 µM (not active)
[6]
  EC50: 6.46 µM (active)
[7]
  EC50: 4.26 µM (active)
[8]
  CC50: 9.24 µM (active)
[9]
  EC50: 4.43 µM (active)
[10]
  EC50: 4.55 µM (active)
[11]
  IC50: > 20 µM (inactive)
INS1
  AC50: 8.13 µM (active)
[12]
  AC50: 16.7 µM (active)
[13]
  AC50: 11.4 µM (active)
[14]
  AC50: 12.9 µM (active)
[3]
  IC50: > 40 µM (inactive)
[4]
  IC50: 20.5 µM (inactive)

## Oc1cc(Cl)ccc1Oc1ccc(Cl)cc1Cl [TRICLOSAN]
[15]
  AC50: 7.85 µM (active)
[3]
  IC50: 2.55 µM (active)
[4]
  IC50: 21.3 µM (inactive)
[16]
  AC50: 70.8 µM (inconclusive)
Escherichia coli [17]
  AC50: 0.329 µM (active)
Escherichia coli [18]
  AC50: 1.06 µM (active)
